Data published in patent US20250325562A1, “Intravenous Ganaxolone Formulations and Methods of Use in Treating Status Epilepticus and Other Seizure Disorders” (MARINUS PHARMACEUTICALS, INC., priority 2015, published 2025).

Test system: pilocarpine induced status epilepticus (SE)
Assay: Pilocarpine-induced status epilepticus in rats, cortical EEG power
Type: in vivo, Male Sprague-Dawley rats
Parameters: key to Treatment effect on EEG power vs vehicle, significance: * P < 0.05; ** P < 0.01; *** P < 0.001; **** P < 0.0001; ns = not significant
Details: 15 mg/kg IV
Procedure: This study was designed to determine the ability of a CAPTISOL-ganaxolone (GNX) formulation administered intravenously (IV) at 12 and 15 mg/kg to inhibit pilocarpine induced status epilepticus (SE). Allopregnanolone (Allo) (15 mg/kg; IV) was also evaluated for comparison. In this study, test drugs were administered either 15 or 60 minutes after onset of SE and compared to vehicle (30% Captisol).
Cortical EEG activity was recorded in rats before and after administration of pilocarpine to induce SE. Animals were pre-treated with LiCl to enhance and improve reliability of seizure induction and scopolamine to reduce peripheral cholinergic side effects of pilocarpine. EEG activity was recorded for 5 h after SE onset, and anticonvulsant activity was assessed by determining changes in EEG power over frequency ranges from 0.3 to 96 Hz.
Male Sprague-Dawley rats were used for the studies. Rats were surgically implanted with EEG electrodes and jugular vein catheters. The mean weight at the time of recording was 321+3 g (269-351 g).
EEG electrodes were surgically implanted in anesthetized rats. Animals were also treated with an anti-inflammatory anaelgesic (RIMADYL, (carprofen)) prior to surgery and a subcutaneous local anesthetic. Stainless steel screw electrodes chronically were implanted in the skull (0-80×¼″, Plastics-One, Roanoke, VA) such that the ends of the screws were flush with the inner skull surface. One electrode was located 3.0 mm anterior to bregma and 2 mm to the left of midline, and the second 4.0 mm posterior to bregma and 2.5 mm to the right of midline. The skull surface around the electrodes was sealed with super glue and dental acrylic, and the EEG electrode lead wires were inserted into a plastic pedestal mounted on the skull using dental acrylic. Wound edges were treated with triple antibiotic cream (bacitracin zinc, neomycin sulfate, polymyxin B sulfate; Walgreens). Following surgery, animals were administered antibiotic (ampicillin, 50 mg/kg IP at 0.4 mL/kg) and also received a chewable dose (˜10 mg) of Rimadyl following surgery. The animals were allowed to recover from EEG surgery for 1 week.
Rats were implanted with jugular-vein catheters (JVC) one week following EEG surgery. Rats were administered an anti-inflammatory/analgesic and then anesthetized and placed in a supine position. An incision was made in the skin on the right ventrolateral aspect of the neck to expose the external jugular vein which was then dissected free of surrounding fascia. A ligature was tied around the vein anteriorly to occlude blood flow returning to the heart. A second ligature was loosely tied around the vein posteriorly to create tension on the vessel during venotomy and catheter insertion. After incising the vein, a PE catheter (3Fr) was inserted into the vein and advanced approximately 30 mm towards the heart, positioning the tip at the junction of the precava and right atrium. After confirming patency of the catheter by blood withdrawal, the posterior ligature was tied off, and the catheter flushed with a “heparin-lock” solution (5 units heparin/ml saline) and plugged with a sterilized stainless steel pin. The catheter was then exteriorized by tunneling through the subcutaneous tissue to exit posterior to the head between the shoulder blades. Lastly, after suturing the catheter to the skin, all wounds were closed using sutures or wound clips. Immediately following surgery, the animals were awakened to assess catheter patency. Animals also received a chewable dose (˜10 mg) of Rimadyl following surgery to minimize pain and inflammation.
Animals were allowed a 1-week recovery time following JVC surgery. Jugular vein catheters were flushed daily with a 0.1 mL of heparin solution (5 units/mL) to maintain patency. On the day of surgery, the flushing solution contained ampicillin sulbactam (50 mg/kg). […]

In the case of `CC(=O)[C@H]1CC[C@H]2[C@@H]3CC[C@H]4C[C@H](O)CC[C@]4(C)[C@H]3CC[C@]12C` [Allopregnanolone], the “reduction in SE” value (60′ dosing delay, 0-5 and 5-10 Hz) is reported as “strong reduction in SE in the first 15′ after dosing”, the “Treatment effect on EEG power vs vehicle, significance” value (15 min post SE onset, 0-5 Hz, 0-15 min. post drug) is reported as “**** (**** P < 0.0001)” and the “Treatment effect on EEG power vs vehicle, significance” value (15 min post SE onset, 0-5 Hz, 1-2 hrs post drug) is reported as “*** (*** P < 0.001)”. For the same compound, the “Treatment effect on EEG power vs vehicle, significance” value (15 min post SE onset, 0-5 Hz, 2-3 hrs post drug) was “* (* P < 0.05)”, the “Treatment effect on EEG power vs vehicle, significance” value (15 min post SE onset, 0-5 Hz, 3-5 hrs post drug) was “ns” and the “Treatment effect on EEG power vs vehicle, significance” value (15 min post SE onset, 0-5 Hz, 15-30 min post drug) was “**** (**** P < 0.0001)”. For the same compound, the “Treatment effect on EEG power vs vehicle, significance” value (15 min post SE onset, 0-5 Hz, 30-60 min post drug) was “**** (**** P < 0.0001)”, the “Treatment effect on EEG power vs vehicle, significance” value (15 min post SE onset, 5-10 Hz, 0-15 min. post drug) was “**** (**** P < 0.0001)” and the “Treatment effect on EEG power vs vehicle, significance” value (15 min post SE onset, 5-10 Hz, 1-2 hrs post drug) was “*** (*** P < 0.001)”. For the same compound, the “Treatment effect on EEG power vs vehicle, significance” value (15 min post SE onset, 5-10 Hz, 2-3 hrs post drug) was “ns”, the “Treatment effect on EEG power vs vehicle, significance” value (15 min post SE onset, 5-10 Hz, 3-5 hrs post drug) was “ns” and the “Treatment effect on EEG power vs vehicle, significance” value (15 min post SE onset, 5-10 Hz, 15-30 min post drug) was “**** (**** P < 0.0001)”. The “Treatment effect on EEG power vs vehicle, significance” value (15 min post SE onset, 5-10 Hz, 30-60 min post drug) was “**** (**** P < 0.0001)”, the “Treatment effect on EEG power vs vehicle, significance” value (15 min post SE onset, 10-30 Hz, 0-15 min. post drug) was “**** (**** P < 0.0001)” and the “Treatment effect on EEG power vs vehicle, significance” value (15 min post SE onset, 10-30 Hz, 1-2 hrs post drug) was “** (** P < 0.01)”. For the same compound, the “Treatment effect on EEG power vs vehicle, significance” value (15 min post SE onset, 10-30 Hz, 2-3 hrs post drug) was “ns”, the “Treatment effect on EEG power vs vehicle, significance” value (15 min post SE onset, 10-30 Hz, 3-5 hrs post drug) was “ns” and the “Treatment effect on EEG power vs vehicle, significance” value (15 min post SE onset, 10-30 Hz, 15-30 min post drug) was “**** (**** P < 0.0001)”. The “Treatment effect on EEG power vs vehicle, significance” value (15 min post SE onset, 10-30 Hz, 30-60 min post drug) was “*** (*** P < 0.001)”, the “Treatment effect on EEG power vs vehicle, significance” value (15 min post SE onset, 30-50 Hz, 0-15 min. post drug) was “**** (**** P < 0.0001)” and the “Treatment effect on EEG power vs vehicle, significance” value (15 min post SE onset, 30-50 Hz, 1-2 hrs post drug) was “ns”. The “Treatment effect on EEG power vs vehicle, significance” value (15 min post SE onset, 30-50 Hz, 2-3 hrs post drug) was “ns”, the “Treatment effect on EEG power vs vehicle, significance” value (15 min post SE onset, 30-50 Hz, 3-5 hrs post drug) was “ns” and the “Treatment effect on EEG power vs vehicle, significance” value (15 min post SE onset, 30-50 Hz, 15-30 min post drug) was “**** (**** P < 0.0001)”. The “Treatment effect on EEG power vs vehicle, significance” value (15 min post SE onset, 30-50 Hz, 30-60 min post drug) was “*** (*** P < 0.001)”, the “Treatment effect on EEG power vs vehicle, significance” value (15 min post SE onset, 50-70 Hz, 0-15 min. post drug) was “*** (*** P < 0.001)” and the “Treatment effect on EEG power vs vehicle, significance” value (15 min post SE onset, 50-70 Hz, 1-2 hrs post drug) was “ns”. The “Treatment effect on EEG power vs vehicle, significance” value (15 min post SE onset, 50-70 Hz, 2-3 hrs post drug) was “ns”, the “Treatment effect on EEG power vs vehicle, significance” value (15 min post SE onset, 50-70 Hz, 3-5 hrs post drug) was “ns” and the “Treatment effect on EEG power vs vehicle, significance” value (15 min post SE onset, 50-70 Hz, 15-30 min post drug) was “*** (*** P < 0.001)”. For the same compound, the “Treatment effect on EEG power vs vehicle, significance” value (15 min post SE onset, 50-70 Hz, 30-60 min post drug) was “** (** P < 0.01)”, the “Treatment effect on EEG power vs vehicle, significance” value (15 min post SE onset, 70-96 Hz, 0-15 min. post drug) was “*** (*** P < 0.001)” and the “Treatment effect on EEG power vs vehicle, significance” value (15 min post SE onset, 70-96 Hz, 1-2 hrs post drug) was “ns”. For the same compound, the “Treatment effect on EEG power vs vehicle, significance” value (15 min post SE onset, 70-96 Hz, 2-3 hrs post drug) was “ns”, the “Treatment effect on EEG power vs vehicle, significance” value (15 min post SE onset, 70-96 Hz, 3-5 hrs post drug) was “ns” and the “Treatment effect on EEG power vs vehicle, significance” value (15 min post SE onset, 70-96 Hz, 15-30 min post drug) was “*** (*** P < 0.001)”. The “Treatment effect on EEG power vs vehicle, significance” value (15 min post SE onset, 70-96 Hz, 30-60 min post drug) was “** (** P < 0.01)”, the “reduction in SE” value (15 minutes post-seizure onset) was “strong reduction in SE up to 1 h post dosing” and the “Treatment effect on EEG power vs vehicle, significance” value (60 min post SE onset, 0-5 Hz, 0-15 min. post drug) was “** (** P < 0.01)”. The “Treatment effect on EEG power vs vehicle, significance” value (60 min post SE onset, 0-5 Hz, 1-2 hrs post drug) was “ns”, the “Treatment effect on EEG power vs vehicle, significance” value (60 min post SE onset, 0-5 Hz, 2-3 hrs post drug) was “ns” and the “Treatment effect on EEG power vs vehicle, significance” value (60 min post SE onset, 0-5 Hz, 3-5 hrs post drug) was “ns”. The “Treatment effect on EEG power vs vehicle, significance” value (60 min post SE onset, 0-5 Hz, 15-30 min post drug) was “ns”, the “Treatment effect on EEG power vs vehicle, significance” value (60 min post SE onset, 0-5 Hz, 30-60 min post drug) was “Ns” and the “Treatment effect on EEG power vs vehicle, significance” value (60 min post SE onset, 5-10 Hz, 0-15 min. post drug) was “** (** P < 0.01)”. For the same compound, the “Treatment effect on EEG power vs vehicle, significance” value (60 min post SE onset, 5-10 Hz, 1-2 hrs post drug) was “ns”, the “Treatment effect on EEG power vs vehicle, significance” value (60 min post SE onset, 5-10 Hz, 2-3 hrs post drug) was “ns” and the “Treatment effect on EEG power vs vehicle, significance” value (60 min post SE onset, 5-10 Hz, 3-5 hrs post drug) was “ns”. For the same compound, the “Treatment effect on EEG power vs vehicle, significance” value (60 min post SE onset, 5-10 Hz, 15-30 min post drug) was “ns”, the “Treatment effect on EEG power vs vehicle, significance” value (60 min post SE onset, 5-10 Hz, 30-60 min post drug) was “Ns” and the “Treatment effect on EEG power vs vehicle, significance” value (60 min post SE onset, 10-30 Hz, 0-15 min. post drug) was “ns”. For the same compound, the “Treatment effect on EEG power vs vehicle, significance” value (60 min post SE onset, 10-30 Hz, 1-2 hrs post drug) was “ns”, the “Treatment effect on EEG power vs vehicle, significance” value (60 min post SE onset, 10-30 Hz, 2-3 hrs post drug) was “ns” and the “Treatment effect on EEG power vs vehicle, significance” value (60 min post SE onset, 10-30 Hz, 3-5 hrs post drug) was “ns”. The “Treatment effect on EEG power vs vehicle, significance” value (60 min post SE onset, 10-30 Hz, 15-30 min post drug) was “ns”, the “Treatment effect on EEG power vs vehicle, significance” value (60 min post SE onset, 10-30 Hz, 30-60 min post drug) was “Ns” and the “Treatment effect on EEG power vs vehicle, significance” value (60 min post SE onset, 30-50 Hz, 0-15 min. post drug) was “ns”. The “Treatment effect on EEG power vs vehicle, significance” value (60 min post SE onset, 30-50 Hz, 1-2 hrs post drug) was “ns”, the “Treatment effect on EEG power vs vehicle, significance” value (60 min post SE onset, 30-50 Hz, 2-3 hrs post drug) was “ns” and the “Treatment effect on EEG power vs vehicle, significance” value (60 min post SE onset, 30-50 Hz, 3-5 hrs post drug) was “ns”. For the same compound, the “Treatment effect on EEG power vs vehicle, significance” value (60 min post SE onset, 30-50 Hz, 15-30 min post drug) was “ns”, the “Treatment effect on EEG power vs vehicle, significance” value (60 min post SE onset, 30-50 Hz, 30-60 min post drug) was “Ns” and the “Treatment effect on EEG power vs vehicle, significance” value (60 min post SE onset, 50-70 Hz, 0-15 min. post drug) was “ns”. For the same compound, the “Treatment effect on EEG power vs vehicle, significance” value (60 min post SE onset, 50-70 Hz, 1-2 hrs post drug) was “ns”, the “Treatment effect on EEG power vs vehicle, significance” value (60 min post SE onset, 50-70 Hz, 2-3 hrs post drug) was “ns” and the “Treatment effect on EEG power vs vehicle, significance” value (60 min post SE onset, 50-70 Hz, 3-5 hrs post drug) was “ns”. The “Treatment effect on EEG power vs vehicle, significance” value (60 min post SE onset, 50-70 Hz, 15-30 min post drug) was “ns”, the “Treatment effect on EEG power vs vehicle, significance” value (60 min post SE onset, 50-70 Hz, 30-60 min post drug) was “Ns” and the “Treatment effect on EEG power vs vehicle, significance” value (60 min post SE onset, 70-96 Hz, 0-15 min. post drug) was “ns”. The “Treatment effect on EEG power vs vehicle, significance” value (60 min post SE onset, 70-96 Hz, 1-2 hrs post drug) was “ns”, the “Treatment effect on EEG power vs vehicle, significance” value (60 min post SE onset, 70-96 Hz, 2-3 hrs post drug) was “ns” and the “Treatment effect on EEG power vs vehicle, significance” value (60 min post SE onset, 70-96 Hz, 3-5 hrs post drug) was “ns”. For the same compound, the “Treatment effect on EEG power vs vehicle, significance” value (60 min post SE onset, 70-96 Hz, 15-30 min post drug) was “ns” and the “Treatment effect on EEG power vs vehicle, significance” value (60 min post SE onset, 70-96 Hz, 30-60 min post drug) was “Ns”.
